Laboratory results reported in patent US20040006070A1, “Intraspinal continuous infusion of midazolam hydrochloride for the treatment of pain” (priority 2002, published 2004).

Key:
[1] = system: neuropathic pain model in the sheep; experiment: Neuropathic pain model in sheep, behavior monitoring (Observer 3.0) with visual analog pain score; format: in vivo
Description: The neuropathic pain model in the sheep is created by placing four tight ligatures around the median, radial, or ulnar nerve (or a combination thereof) with 0-chromic gut suture. This method produces a chronic painful peripheral mononeuropathy which may be related to those conditions seen in humans with causalgia and reflex sympathetic dystrophy.
To evaluate animal behavior, the Observer 3.0 software (Noldus Information Technology, The Netherlands) was used to aid docmentation of a daily record of multiple traits. […] The behavior was then interpreted into a visual analog pain score (VAS), where 0 represents no pain and 100 represents severe pain.
Approximately three days prior to surgery each sheep will undergo a 15-minute baseline behavior evaluation. The observations made in this evaluation include, a computerized behavior software recording (the Observer) for 15minutes—gait monitoring—and recording of pain perception via visual analog scale-using the Observer. In some animals, recording of vital signs (blood pressure, heart rate, respirations per minute) will be performed using the Observer. Baseline values for pain perception are recorded via the mechanical stimulus device and/or behavior monitoring will also be performed at this time.
The sheep will be observed daily postoperatively. […] Observations of neuropathic pain development include changes in ambulation, alertness, appetite, urination, defecation, herding activity, body temperature and pain behaviors. This daily behavior is recorded utilizing the observer (an observational software system).

[2] = Toxicity in neuropathic pain sheep: clinical signs, necropsy, histopathology; format: in vivo; conditions: sheep #604 Clint
Description: Animals will be observed daily for any signs of clinical toxicity such as limping and loss of appetite. At necropsy the spinal cord will be examined for any gross changes. Histopathologic evaluation will be performed on all animals after drug studies are complete. These examinations will detect any neurotoxicity that may be present due to the spinal infusion of midazolam.

[3] = in vivo, cited from earlier work

## CN1CC[C@]23c4c5ccc(O)c4O[C@H]2[C@@H](O)C=C[C@H]3[C@H]1C5.O=S(=O)(O)O [morphine, morphine sulfate]
[1]; Sheep #604 Clint, 6 mg Morphine per day intrathecal, first infusion period, Dec. 7, 2001, day of study 0
  Pain Score: 60%
[1]; Sheep #604 Clint, 6 mg Morphine per day intrathecal, first infusion period, Dec. 8, 2001, day of study 1
  Pain Score: 60%
[1]; Sheep #604 Clint, 6 mg Morphine per day intrathecal, first infusion period, Dec. 9, 2001, day of study 2
  Pain Score: 60%
[1]; Sheep #604 Clint, 6 mg Morphine per day intrathecal, first infusion period, Dec. 11, 2001, day of study 4
  Pain Score: 45%
[1]; Sheep #604 Clint, 6 mg Morphine per day intrathecal, first infusion period, Dec. 12, 2001, day of study 5
  Pain Score: 30%
[1]; Sheep #604 Clint, 6 mg Morphine per day intrathecal, first infusion period, Dec. 13, 2001, day of study 6
  Pain Score: 35%
[1]; Sheep #604 Clint, 6 mg Morphine per day intrathecal, first infusion period, Dec. 14, 2001, day of study 7
  Pain Score: 40%
[1]; Sheep #604 Clint, 6 mg Morphine per day intrathecal, first infusion period, Dec. 15, 2001, day of study 8
  Pain Score: 50%
[1]; Sheep #604 Clint, 6 mg Morphine per day intrathecal, first infusion period, Dec. 16, 2001, day of study 9
  Pain Score: 40%
[1]; Sheep #604 Clint, 6 mg Morphine per day intrathecal, first infusion period, Dec. 17, 2001, day of study 10
  Pain Score: 33%
[1]; Sheep #604 Clint, 6 mg Morphine per day intrathecal, first infusion period, Dec. 18, 2001, day of study 11
  Pain Score: 35%
[1]; Sheep #604 Clint, 6 mg Morphine per day intrathecal, first infusion period, Dec. 19, 2001, day of study 12
  Pain Score: 35%
[1]; Sheep #604 Clint, 6 mg Morphine per day intrathecal, first infusion period, Dec. 20, 2001, day of study printed 0, changed to saline at 1:30 PM
  Pain Score: 33%
[1]; Sheep #604 Clint, 6 mg Morphine per day intrathecal, second infusion period after saline, Dec. 29, 2001, day of study 1
  Pain Score: 50%
[1]; Sheep #604 Clint, 6 mg Morphine per day intrathecal, second infusion period after saline, Dec. 30, 2001, day of study 2
  Pain Score: 40%
[1]; Sheep #604 Clint, 6 mg Morphine per day intrathecal, second infusion period after saline, Dec. 31, 2001, day of study 3
  Pain Score: 38%
[1]; Sheep #604 Clint, 6 mg Morphine per day intrathecal, second infusion period after saline, Jan. 1, 2002, day of study 4
  Pain Score: 40%
[1]; Sheep #604 Clint, 6 mg Morphine per day intrathecal, second infusion period after saline, Jan. 2, 2002, day of study 5
  Pain Score: 30%
[1]; Sheep #604 Clint, 6 mg Morphine per day intrathecal, second infusion period after saline, Jan. 3, 2002, day of study 6
  Pain Score: 33%
[1]; Sheep #604 Clint, 6 mg Morphine per day intrathecal, second infusion period after saline, Jan. 4, 2002, day of study 7
  Pain Score: 30%
[1]; Sheep #604 Clint, 6 mg Morphine per day intrathecal, second infusion period after saline, Jan. 5, 2002, day of study 8
  Pain Score: 30%
[1]; Sheep #604 Clint, 6 mg Morphine per day intrathecal, second infusion period after saline, Jan. 6, 2002, day of study 9
  Pain Score: 30%
[1]; Sheep #604 Clint, 6 mg Morphine per day intrathecal, second infusion period after saline, Jan. 7, 2002, day of study 10
  Pain Score: 30%
[1]; Sheep #604 Clint, 6 mg Morphine per day intrathecal, second infusion period after saline, Jan. 8, 2002, day of study 11
  Pain Score: 30%
[1]; Sheep #604 Clint, 6 mg Morphine per day intrathecal, second infusion period after saline, Jan. 9, 2002, day of study 12, pump then refilled with saline at 9:44 AM
  Pain Score: 15%
[1]; sheep #604 Clint, first 13 days of infusion at 6 mg/day
  average pain score: 43%
[1]; sheep #604 Clint, later infusions begun with either morphine or saline
  average pain scores: 30-50%
[1]; sheep #980 Dudley, 1 mg/day gradually increased to 6 mg/day
  average pain score: 76%
[1]; sheep #980 Dudley, 6.5 mg/day after 13 days of treatment
  Pain Score: 20%
[2]; intrathecal
  clinical behavior during therapy: restlessness, pain behaviors such as biting itself near the area of the catheter tip, and frequently laying down
[2]; lesion 0.8 cm (L)×0.5 cm (W)×0.3 cm (Depth)
  necropsy, spinal cord: cavitated lesion in the spinal cord in front of the catheter tip
[3]; iv
  approximate equipotent dose, IV: 200
[3]; po
  approximate equipotent dose, PO: 600
[3]
  approximate equipotent dose, IT: 10
